ChEMBL document CHEMBL1201862, “PubChem BioAssay data set” (2004)
One block for each compound: values may come before it. Activity calls are given as the source filed them.

Columns and labels:
[1] = target: T1, Heat shock factor protein 1 (Mus musculus, UniProt P38532); assay: enhancement of HSF1-driven luciferase signal – cell-based, NIH3T3, luminescence, dose retest, confirmation (AID 435004); type: functional;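 also: stress induced by proteasome inhibitor MG132 added 30 min after compound; luciferase reporter driven by HSF1 response element in NIH3T3 cells; actives raise luminescence as potentiators of the MG132 stress response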
T1 sequence (P38532 whole entry): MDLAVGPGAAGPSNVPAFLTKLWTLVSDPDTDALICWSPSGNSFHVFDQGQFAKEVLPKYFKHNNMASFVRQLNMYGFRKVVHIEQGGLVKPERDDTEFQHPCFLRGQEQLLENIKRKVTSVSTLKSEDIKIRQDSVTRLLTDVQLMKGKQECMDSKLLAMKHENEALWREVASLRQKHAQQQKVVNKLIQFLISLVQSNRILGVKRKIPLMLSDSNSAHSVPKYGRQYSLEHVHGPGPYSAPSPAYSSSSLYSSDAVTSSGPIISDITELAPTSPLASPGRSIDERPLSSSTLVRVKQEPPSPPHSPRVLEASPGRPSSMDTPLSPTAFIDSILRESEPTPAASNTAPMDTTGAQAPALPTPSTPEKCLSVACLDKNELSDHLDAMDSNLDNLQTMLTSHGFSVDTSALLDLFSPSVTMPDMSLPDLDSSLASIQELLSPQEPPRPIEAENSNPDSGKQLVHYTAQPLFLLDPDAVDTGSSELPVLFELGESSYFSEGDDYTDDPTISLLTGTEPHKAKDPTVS

[2] = target: Ubiquitin carboxyl-terminal hydrolase BAP1 (Homo sapiens, UniProt Q92560); assay: inhibition of BAP1 ubiquitin hydrolase activity – biochemical, dose response (AID 714); type: functional
Ubiquitin carboxyl-terminal hydrolase BAP1, sequence (Q92560 whole entry): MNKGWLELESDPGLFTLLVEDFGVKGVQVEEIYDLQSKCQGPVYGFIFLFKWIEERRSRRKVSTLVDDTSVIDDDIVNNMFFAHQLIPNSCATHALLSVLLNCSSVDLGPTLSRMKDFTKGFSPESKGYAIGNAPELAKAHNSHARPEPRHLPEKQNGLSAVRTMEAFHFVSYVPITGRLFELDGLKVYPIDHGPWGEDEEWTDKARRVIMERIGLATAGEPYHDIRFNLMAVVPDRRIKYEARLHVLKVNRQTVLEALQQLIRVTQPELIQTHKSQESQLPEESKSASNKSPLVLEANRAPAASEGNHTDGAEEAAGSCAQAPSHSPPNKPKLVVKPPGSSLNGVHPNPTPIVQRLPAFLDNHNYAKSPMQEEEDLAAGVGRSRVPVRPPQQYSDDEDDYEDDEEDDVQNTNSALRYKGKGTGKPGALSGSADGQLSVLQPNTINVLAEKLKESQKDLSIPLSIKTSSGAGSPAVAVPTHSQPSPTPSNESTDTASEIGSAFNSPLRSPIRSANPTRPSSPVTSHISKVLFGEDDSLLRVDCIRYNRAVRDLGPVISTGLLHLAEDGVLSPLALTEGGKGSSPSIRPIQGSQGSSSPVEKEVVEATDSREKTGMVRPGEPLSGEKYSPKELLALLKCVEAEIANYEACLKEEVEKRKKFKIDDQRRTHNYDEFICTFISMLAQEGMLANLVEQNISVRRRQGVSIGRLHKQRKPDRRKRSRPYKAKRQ

Beta-galactosidase = Beta-galactosidase (Escherichia coli, UniProt Q8VNN2); assay: Dose response counterscreen for EBI2 assay utilizing the enzyme, b-galactosidase.; type: functional
Beta-galactosidase, sequence (Q8VNN2 whole entry): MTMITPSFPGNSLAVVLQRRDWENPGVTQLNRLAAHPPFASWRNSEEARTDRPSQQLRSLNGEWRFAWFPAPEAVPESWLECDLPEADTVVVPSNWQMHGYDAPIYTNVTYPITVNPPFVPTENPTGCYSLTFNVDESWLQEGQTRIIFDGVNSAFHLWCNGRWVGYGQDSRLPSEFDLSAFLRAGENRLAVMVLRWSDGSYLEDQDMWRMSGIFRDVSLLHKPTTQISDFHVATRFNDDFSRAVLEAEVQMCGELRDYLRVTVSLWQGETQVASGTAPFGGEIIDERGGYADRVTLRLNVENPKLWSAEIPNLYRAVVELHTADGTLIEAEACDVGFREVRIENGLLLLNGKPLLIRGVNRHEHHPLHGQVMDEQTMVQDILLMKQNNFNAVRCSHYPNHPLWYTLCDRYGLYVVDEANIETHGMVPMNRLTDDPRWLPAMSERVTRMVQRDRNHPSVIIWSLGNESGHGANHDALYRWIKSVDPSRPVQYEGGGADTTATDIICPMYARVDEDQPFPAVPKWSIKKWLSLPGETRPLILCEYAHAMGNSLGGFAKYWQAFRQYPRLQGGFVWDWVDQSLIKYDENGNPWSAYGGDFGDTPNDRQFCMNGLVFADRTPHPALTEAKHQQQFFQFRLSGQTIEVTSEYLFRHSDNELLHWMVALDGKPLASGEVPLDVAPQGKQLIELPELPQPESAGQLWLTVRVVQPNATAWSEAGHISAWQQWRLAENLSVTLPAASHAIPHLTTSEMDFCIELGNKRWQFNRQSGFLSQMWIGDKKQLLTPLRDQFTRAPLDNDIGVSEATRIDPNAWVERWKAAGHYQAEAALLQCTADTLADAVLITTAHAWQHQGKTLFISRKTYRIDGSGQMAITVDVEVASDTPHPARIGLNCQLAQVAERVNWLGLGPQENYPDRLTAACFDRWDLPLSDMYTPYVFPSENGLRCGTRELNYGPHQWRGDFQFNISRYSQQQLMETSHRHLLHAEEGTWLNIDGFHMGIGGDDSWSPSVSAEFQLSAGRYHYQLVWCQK

[3] = target: G-protein coupled receptor 183 (Homo sapiens, UniProt P32249); assay: SAR confirmation of small molecule antagonists of the EBI2 receptor via a luminescent beta-arrestin assa.; type: functional
Paired box protein Pax-8 = Paired box protein Pax-8 (Homo sapiens, UniProt Q06710); assay: PAX8 transcriptional activity inhibition in RMG-I – RMG-I cells, luciferase, cherry-pick, dose response (AID 687027); type: functional, cell-based;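 also: luciferase reporter driven by Pax8 target thyroperoxidase promoter measured by SteadyGlo luminescence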
Paired box protein Pax-8, sequence (Q06710 whole entry): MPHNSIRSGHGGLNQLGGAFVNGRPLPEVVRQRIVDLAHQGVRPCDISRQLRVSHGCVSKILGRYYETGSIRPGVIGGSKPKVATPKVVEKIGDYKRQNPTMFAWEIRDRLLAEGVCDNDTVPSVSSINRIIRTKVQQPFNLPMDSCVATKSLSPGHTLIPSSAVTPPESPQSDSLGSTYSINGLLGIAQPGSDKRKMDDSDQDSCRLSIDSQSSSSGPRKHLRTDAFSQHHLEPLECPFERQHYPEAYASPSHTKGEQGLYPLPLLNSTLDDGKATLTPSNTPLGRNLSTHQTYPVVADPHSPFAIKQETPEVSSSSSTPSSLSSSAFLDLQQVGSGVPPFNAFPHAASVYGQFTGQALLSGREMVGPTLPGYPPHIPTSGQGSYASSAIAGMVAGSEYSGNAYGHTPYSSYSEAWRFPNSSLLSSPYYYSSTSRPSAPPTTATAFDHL

[4] = IGROV1 cell killing – plate reader, dry powder samples, PAX8 inhibitor project, dose response (AID 743043); type: functional, cell-based; settings: IGROV-1
[5] = toxicity toward immortalized ovarian surface epithelium – cell-based, plate reader, dry powder samples, cytotoxicity control for PAX8 inhibitor project, dose response (AID 743045); type: functional
[6] = OVCAR-3 cell viability loss – plate reader, dry powder samples, PAX8 inhibitor project, dose response (AID 743044); type: functional, cell-based
[7] = A2780 cell killing – plate reader, dry powder samples, cytotoxicity control, dose response (AID 743046); type: functional, cell-based
[8] = Late-stage results from the probe development effort to identify antagonists of arginine vasopressin receptor 1a (AVPR1a): fluorescence-based cell-based dose response OXTR inhibition counterscreen assay.; type: functional
Vasopressin V1b receptor = Vasopressin V1b receptor (Homo sapiens, UniProt P47901); assay: Late-stage results from the probe development effort to identify antagonists of arginine vasopressin receptor 1a (AVPR1a): fluorescence-based cell-based dose response AVPR1b inhibition counterscreen assay.; type: functional
Vasopressin V2 receptor = Vasopressin V2 receptor (Homo sapiens, UniProt P30518); assay: Late-stage results from the probe development effort to identify antagonists of arginine vasopressin receptor 1a (AVPR1a): fluorescence-based cell-based dose response AVPR2 inhibition counterscreen assay.; type: functional
[9] = Late-stage results from the probe development effort to identify antagonists of arginine vasopressin receptor 1a (AVPR1a): fluorescence-based cell-based dose response AVPR1a inhibition assay.; type: functional
[10] = target: Endoplasmic reticulum aminopeptidase 1 (Homo sapiens, UniProt Q9NZ08); assay: inhibition of human ERAP1 enzyme activity – biochemical, cherry-pick, set 2, plate reader, dose response (AID 743314)
[11] = target: Endoplasmic reticulum aminopeptidase 2 (Homo sapiens, UniProt Q6P179); assay: inhibition of ERAP2 arginine-AMC cleavage – biochemical, fluorescence plate reader, cherry-picked, set 2, selectivity assay for selective ERAP1 modulator project, dose response (AID 743320)
Endoplasmic reticulum aminopeptidase 2, sequence (Q6P179 whole entry): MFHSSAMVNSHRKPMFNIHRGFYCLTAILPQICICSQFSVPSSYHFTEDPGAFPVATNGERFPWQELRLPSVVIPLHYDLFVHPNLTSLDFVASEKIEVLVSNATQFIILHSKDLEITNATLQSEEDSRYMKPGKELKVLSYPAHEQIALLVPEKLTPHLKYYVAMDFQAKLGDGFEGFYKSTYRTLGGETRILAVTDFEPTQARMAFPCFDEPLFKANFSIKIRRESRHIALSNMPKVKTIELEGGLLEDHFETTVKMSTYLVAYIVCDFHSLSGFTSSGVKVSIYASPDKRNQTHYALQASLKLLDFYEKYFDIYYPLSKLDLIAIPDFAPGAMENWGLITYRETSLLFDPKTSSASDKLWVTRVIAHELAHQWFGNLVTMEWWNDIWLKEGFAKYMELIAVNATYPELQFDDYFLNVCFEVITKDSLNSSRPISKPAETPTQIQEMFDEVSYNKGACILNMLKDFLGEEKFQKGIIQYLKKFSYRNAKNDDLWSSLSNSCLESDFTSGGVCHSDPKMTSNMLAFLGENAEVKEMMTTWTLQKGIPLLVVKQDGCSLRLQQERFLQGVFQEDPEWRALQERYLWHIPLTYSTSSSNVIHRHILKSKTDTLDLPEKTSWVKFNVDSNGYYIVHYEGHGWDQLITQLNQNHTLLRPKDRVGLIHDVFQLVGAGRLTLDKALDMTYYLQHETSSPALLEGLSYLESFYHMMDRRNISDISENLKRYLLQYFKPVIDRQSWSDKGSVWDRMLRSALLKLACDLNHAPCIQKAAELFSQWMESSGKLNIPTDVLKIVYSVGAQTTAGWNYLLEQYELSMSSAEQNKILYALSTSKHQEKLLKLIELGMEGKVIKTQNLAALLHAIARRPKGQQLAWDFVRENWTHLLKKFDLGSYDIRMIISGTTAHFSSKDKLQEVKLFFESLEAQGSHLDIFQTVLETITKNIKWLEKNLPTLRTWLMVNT

[12] = target: Metabotropic glutamate receptor 5 (Rattus norvegicus, UniProt P31424); assay: Identification of a glycine sulfonamide based non-MPEP site positive allosteric potentiator (PAM) of mGlu5 (calcium_assay).; type: functional
Metabotropic glutamate receptor 5, sequence (P31424 whole entry, the tested form may be a part): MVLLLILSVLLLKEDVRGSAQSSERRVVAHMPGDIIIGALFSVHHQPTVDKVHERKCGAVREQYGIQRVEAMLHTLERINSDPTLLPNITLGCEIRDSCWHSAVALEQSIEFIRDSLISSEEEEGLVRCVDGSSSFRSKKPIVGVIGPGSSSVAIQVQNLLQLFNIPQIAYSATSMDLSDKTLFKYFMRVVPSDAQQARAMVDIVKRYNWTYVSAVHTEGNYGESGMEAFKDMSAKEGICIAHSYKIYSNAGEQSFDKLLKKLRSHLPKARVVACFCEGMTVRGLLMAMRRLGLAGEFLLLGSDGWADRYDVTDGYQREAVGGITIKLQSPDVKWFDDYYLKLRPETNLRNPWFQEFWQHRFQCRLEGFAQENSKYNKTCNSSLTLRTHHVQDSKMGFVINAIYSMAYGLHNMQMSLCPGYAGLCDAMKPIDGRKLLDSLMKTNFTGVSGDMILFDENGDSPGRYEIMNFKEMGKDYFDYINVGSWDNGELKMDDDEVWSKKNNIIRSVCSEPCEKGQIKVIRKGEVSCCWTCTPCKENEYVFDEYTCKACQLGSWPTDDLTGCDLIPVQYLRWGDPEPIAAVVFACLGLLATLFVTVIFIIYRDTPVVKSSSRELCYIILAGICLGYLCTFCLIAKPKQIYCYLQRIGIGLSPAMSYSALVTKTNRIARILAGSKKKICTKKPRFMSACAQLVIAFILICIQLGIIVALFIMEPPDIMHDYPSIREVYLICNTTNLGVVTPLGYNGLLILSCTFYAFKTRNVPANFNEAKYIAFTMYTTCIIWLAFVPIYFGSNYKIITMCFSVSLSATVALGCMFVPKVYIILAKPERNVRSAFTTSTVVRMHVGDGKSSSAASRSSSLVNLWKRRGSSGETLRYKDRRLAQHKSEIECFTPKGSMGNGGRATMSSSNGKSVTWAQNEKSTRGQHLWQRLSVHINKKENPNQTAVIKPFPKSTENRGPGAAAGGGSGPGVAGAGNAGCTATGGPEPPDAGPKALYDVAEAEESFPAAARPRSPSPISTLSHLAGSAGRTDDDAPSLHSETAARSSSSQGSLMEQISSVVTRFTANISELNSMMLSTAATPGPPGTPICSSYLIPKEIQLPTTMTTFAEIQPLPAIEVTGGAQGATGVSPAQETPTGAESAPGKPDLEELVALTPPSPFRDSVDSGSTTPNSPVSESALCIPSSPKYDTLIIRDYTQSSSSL

[13] = target: T2, Oxysterols receptor LXR-beta (Homo sapiens, UniProt P55055); type: functional, cell-based;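 also: Cell-based luminescence dose-response assay of agonist activity at LXR, run as a confirmatory counterscreen to a daf-12 agonist screen; HEK293 cells with Gal4-LXR fusion and GAL4-driven luciferase reporter; agonist potency from rising luciferase signal of a Gal4-LXR reporter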
T2 sequence (P55055 whole entry): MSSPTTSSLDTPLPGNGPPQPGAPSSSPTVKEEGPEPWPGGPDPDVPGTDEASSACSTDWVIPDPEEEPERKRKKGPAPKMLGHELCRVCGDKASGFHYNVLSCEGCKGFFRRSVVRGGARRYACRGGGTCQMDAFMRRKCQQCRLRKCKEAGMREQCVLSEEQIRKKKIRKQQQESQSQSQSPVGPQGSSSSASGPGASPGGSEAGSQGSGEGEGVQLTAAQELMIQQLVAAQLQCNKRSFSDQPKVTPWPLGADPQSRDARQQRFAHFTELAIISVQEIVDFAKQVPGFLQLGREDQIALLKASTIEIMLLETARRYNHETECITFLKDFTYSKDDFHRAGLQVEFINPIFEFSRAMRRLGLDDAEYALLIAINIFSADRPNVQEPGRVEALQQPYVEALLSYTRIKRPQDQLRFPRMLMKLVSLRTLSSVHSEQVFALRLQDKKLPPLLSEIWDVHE

cells [14] = assay: cells
cells [15] = type: functional, cell-based; settings: INS-1E
[16] = IC50 of insulin release inhibition, rat insulinoma INS-1E line, 5 mM glucose, cell-based (AID 1117331); type: functional
[17] = target: T3, Polyadenylate-binding protein 1 (Homo sapiens, UniProt P11940); assay: MLLE binding blockers, Cy5 peptide tracer – biochemical, fluorescence polarization, Cy5-PAM2 peptide, secondary, miRNA deadenylation inhibitor project, dose response (AID 602260); type: functional; settings: read-out: IC50_Mean
T3 sequence (P11940 whole entry, the tested form may be a part): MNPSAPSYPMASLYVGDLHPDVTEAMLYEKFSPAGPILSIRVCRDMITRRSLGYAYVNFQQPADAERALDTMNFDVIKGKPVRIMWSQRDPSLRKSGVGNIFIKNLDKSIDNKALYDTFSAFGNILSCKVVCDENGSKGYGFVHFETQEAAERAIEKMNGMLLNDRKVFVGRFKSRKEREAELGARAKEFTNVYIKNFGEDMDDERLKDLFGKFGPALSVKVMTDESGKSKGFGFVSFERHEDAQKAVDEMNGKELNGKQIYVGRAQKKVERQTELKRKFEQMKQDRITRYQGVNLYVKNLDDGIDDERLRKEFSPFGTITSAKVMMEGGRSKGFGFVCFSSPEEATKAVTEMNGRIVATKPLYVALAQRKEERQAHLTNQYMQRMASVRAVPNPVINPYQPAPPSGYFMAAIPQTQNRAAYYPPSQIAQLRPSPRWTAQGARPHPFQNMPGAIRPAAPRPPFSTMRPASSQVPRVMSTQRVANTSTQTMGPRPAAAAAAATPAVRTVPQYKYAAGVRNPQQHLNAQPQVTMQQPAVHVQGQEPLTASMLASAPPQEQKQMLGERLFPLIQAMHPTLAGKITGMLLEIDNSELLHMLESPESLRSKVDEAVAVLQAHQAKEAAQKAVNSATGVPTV

[18] = target: T3, Polyadenylate-binding protein 1; assay: MLLE domain peptide-binding blockers, IC50 – biochemical, fluorescence polarization, FITC-PAM2 peptide, dose response (AID 602259); type: functional; settings: read-out: IC50_Mean
Bcl-2-related protein A1 [19] = target: T4, Bcl-2-related protein A1 (Mus musculus, UniProt Q07440); assay: displacement of Bid BH3 peptide from Bfl-1 – biochemical, fluorescence polarization, FITC-Bid, mouse, primary screen (AID 432)
T4 sequence (Q07440 whole entry): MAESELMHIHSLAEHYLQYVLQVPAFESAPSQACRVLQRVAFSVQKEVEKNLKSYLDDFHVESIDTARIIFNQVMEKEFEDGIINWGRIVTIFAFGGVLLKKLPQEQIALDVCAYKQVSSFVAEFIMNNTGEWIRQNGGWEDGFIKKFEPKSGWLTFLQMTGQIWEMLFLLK

Bcl-2-related protein A1 [20] = target: T4, Bcl-2-related protein A1; assay: small-molecule antagonists of Bfl-1/BH3 interaction – biochemical, TR-FRET, mouse Bfl-1, confirmation (AID 621);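 also: TR-FRET binding of GST-Bfl-1 to FITC-labelled Bid peptide via terbium antibody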

Structure (SMILES): C[C@H](CO)N1C[C@H](C)[C@H](CN(C)Cc2ccccc2)OCCCC[C@H](C)Oc2ccc(NC(=O)Nc3ccc(C(F)(F)F)cc3)cc2C1=O
AC50 (Paired box protein Pax-8): 4.95 µM (active)
AC50 [4]: 26.9 µM (active)
AC50 [5]: 50 µM (active)
AC50 [6]: 17.6 µM (active)
AC50 [7]: 41.4 µM (active)

Structure (SMILES): COc1cccc(N(CC2CC2)C(=O)N2CCN(c3ccccc3C)CC2)c1
IC50 [8]: 20.6 µM (inactive)
IC50 (Vasopressin V1b receptor): 12.4 µM (inactive)
IC50 (Vasopressin V2 receptor): 20.6 µM (inactive)
IC50 [9]: 0.057 µM (active)

Structure (SMILES): CC(C)[C@@H](C(=O)N[C@@H](CCc1ccc(O)cc1)C(=O)O)N(C)C(=O)[C@H](CO)NC(=O)[C@@H](O)[C@H](N)CCCCCCCCl
AC50 [10]: 0.682 µM (active)
AC50 [11]: 1.47 µM (active)

Structure (SMILES): CC(C)(C)NC(=O)CN(c1ccccc1Cl)S(C)(=O)=O
EC50 [12]: > 30 µM (inactive)

Structure (SMILES): COc1ccc(C(=O)/N=c2\sc3ccccc3n2C)cc1
EC50 [13]: > 67.5 µM (inactive)
EC50 (cells [14]): > 67.5 µM (inactive)

Structure (SMILES): O=C(NN1CCCC1)NS(=O)(=O)c1ccc(Cl)cc1 [GLYCLOPYRAMIDE]
IC50 (cells [15]): > 33.3 µM (inactive)
IC50 [16]: 14.9 µM (inactive)

Continued, values first:

EC50 [1]: > 260 µM (inactive)
IC50 [2]: > 50 µM (not active)
Structure (SMILES): O=C1CC(c2ccoc2)CC(Nc2ccccc2)=C1C(=O)Nc1ccccc1 (centres undefined)

IC50 (Beta-galactosidase): > 80 µM (inactive)
IC50 [3]: 0.0028 µM (active)
Structure (SMILES): O=C(/C=C/c1ccc(Br)cc1)N1CCN(Cc2ccccc2)CC1

IC50 [17]: > 66 µM (inactive)
IC50 [18]: 28.1 µM (inactive)
IC50 (Bcl-2-related protein A1 [19]): > 100 µM (not active)
IC50 (Bcl-2-related protein A1 [20]): > 100 µM (not active)
Structure (SMILES): NC(=O)N1c2ccccc2CC(=O)c2ccccc21 [OXCARBAZEPINE]
